In US20120196899A1, “METHODS AND PRODUCTS FOR TREATING INFLAMMATION” (Rock Creek Pharmaceuticals, Inc., priority 2010, published 2012):

Molecular target: T1, nAChR α7 (Homo sapiens, UniProt P36544)
T1 construct: host or cells: CHO cells
Experiment: cell-based
Settings: with 300 μM Ach + 10 μM PNU-120596, 10 μM MLA = full inhibition, read-out: Normalized % Inhibition

T1 sequence (P36544 23-502): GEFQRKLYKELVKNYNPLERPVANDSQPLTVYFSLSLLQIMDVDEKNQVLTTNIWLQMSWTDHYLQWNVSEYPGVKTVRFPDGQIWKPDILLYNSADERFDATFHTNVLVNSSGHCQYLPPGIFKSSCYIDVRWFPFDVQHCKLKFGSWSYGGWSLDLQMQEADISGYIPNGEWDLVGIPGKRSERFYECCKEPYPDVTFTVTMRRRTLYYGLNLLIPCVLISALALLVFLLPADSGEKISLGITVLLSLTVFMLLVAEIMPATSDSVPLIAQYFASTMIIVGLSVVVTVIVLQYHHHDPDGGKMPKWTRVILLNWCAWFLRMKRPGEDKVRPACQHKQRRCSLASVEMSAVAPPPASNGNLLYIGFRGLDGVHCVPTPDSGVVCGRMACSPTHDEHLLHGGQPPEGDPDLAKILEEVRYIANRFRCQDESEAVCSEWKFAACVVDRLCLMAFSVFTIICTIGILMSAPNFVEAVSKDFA

C1=CCC(c2cccnc2)NC1 (racemic) [Anatabine (racemate)]
inhibition at 0.3 µM (test conc 0.3 μM): 22.4% | inhibition at 1 µM (test conc 1 μM): 22.2% | inhibition at 3 µM (test conc 3 μM): 45.2% | inhibition at 10 µM (test conc 10 μM): 33.4% | inhibition at 30 µM (test conc 30 μM): 22.9% | inhibition at 100 µM (test conc 100 μM): 22% | inhibition at 300 µM (test conc 300 μM): 7.51% | inhibition at 1000 µM (test conc 1000 μM): 10.8%
